Experimental findings from article PMC8521518, “Nicotinamide Adenine Dinucleotide-Dependent Flavin Oxidoreductase of Mycoplasma hyopneumoniae Functions as a Potential Novel Virulence Factor and Not Only as a Metabolic Enzyme” (Frontiers in Microbiology, 2021) are described below.

In this experiment the target is T1, rNFOR (Mhp NFOR, NADH-dependent flavin oxidoreductase) (Mesomycoplasma hyopneumoniae, UniProt E4QSY0).
T1 construct: gene baiH; 44 kDa on gel
Put plainly: NADH oxidation. It counts as biochemical. Conditions: 0.5 mM NADH, 10 uM FMN (5 min preincubation), 0.1 M potassium phosphate pH 7.5, 1 mM DTT, 25 C.

T1 sequence (E4QSY0 entry or part of it): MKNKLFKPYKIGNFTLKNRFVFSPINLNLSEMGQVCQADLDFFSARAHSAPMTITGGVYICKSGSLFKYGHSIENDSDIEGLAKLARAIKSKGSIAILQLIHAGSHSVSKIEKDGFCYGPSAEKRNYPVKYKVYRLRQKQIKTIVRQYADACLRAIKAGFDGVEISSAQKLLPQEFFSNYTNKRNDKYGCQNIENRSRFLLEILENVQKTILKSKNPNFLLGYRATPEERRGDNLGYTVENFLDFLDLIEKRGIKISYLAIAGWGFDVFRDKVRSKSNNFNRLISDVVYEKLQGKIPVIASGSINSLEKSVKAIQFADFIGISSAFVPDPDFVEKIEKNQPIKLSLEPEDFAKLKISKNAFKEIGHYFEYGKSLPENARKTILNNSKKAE

Consider `NC(=O)C1=CN([C@@H]2O[C@H](COP(=O)(O)OP(=O)(O)OC[C@H]3O[C@@H](n4cnc5c(N)ncnc54)[C@H](O)[C@@H]3O)[C@@H](O)[C@H]2O)C=CC1` [NADH], for which the “NADH oxidation, absorbance at 340 nm” value was “enzymatic activity of purified rNFOR was determined by calculating the oxidation of NADH to NAD^+”.
